Measurements as given in patent publication US20230414657A1, “Novel compositions for neutralizing toxic effects of hydrogen peroxide in living cells or tissues” (Dzala LLC, priority 2020, published 2023).
Read-outs that look alike come from different tables or passages of the source.

Legend:
C. elegans [1] = assay: Oxygen consumption rate (OCR), Seahorse XFe96; assay type: in vivo
Protocol: Oxygen consumption of worms was measured with a Seahorse XFe96 system (Seahorse Bioscience, North Billerica, MA), as previously described^4. L3 larvae of the different strains were grown on plates or in liquid culture and supplemented for 2-4 days as described for each experiment. After removing bacteria and debris, approximately 100 worms were pipetted into each well of a 96-well Seahorse XF^e assay plate and OCR was measured until it stabilized. Then, 3 subsequent measurements were made at 6.5-min intervals. Finally, the exact number of worms in each well was counted and used for normalization. A small number of abnormal readings were also filtered out at this stage. On average, 7-8 wells (technical replicates) were used for each condition. Normalized OCR values were averaged for the last 3 measurements for each strain and condition. Four biological replicates were analyzed for each condition.

C. elegans [2] = assay type: in vivo
Protocol: Mitochondrial staining was performed as described previously^3,4. Briefly, L1 worms were grown on plate or in liquid culture for 2-3 days at 15° C. […] Next, the excess dye was washed off with M9 buffer and worms were incubated in 100 μl M9 for 30 min to eliminate the excess dye in the gut. Finally, worms were paralyzed with 0.5 mM Levamizol (Sigma-Aldrich), placed on slides covered with a thin layer of 2% agarose on top of which the coverslip (22×22 mm, Menzel-Glaser no. 1) was fixed using nail polish. We used a Zeiss LSM 700 inverted laser scanning confocal microscope and a Zeiss LCI Plan-Neofluar 63×/1.3 ImmCorr DIC M27 objective to image mitochondria (Zeiss, Germany). MitoTracker Red CMXRos was excited at 555 nm and the emission above 560 nm was acquired by the second PMT. Optical sections at 0.1×0.1×0.5 μm^3 x-y-z resolution were collected in […]. Final images were adjusted for intensity and merged in Fiji. No non-linear adjustments were made.

C. elegans [3] = assay: Growth rate / worm size; assay type: in vivo; conditions: for Growth: 100 mM H2O2 plus supplement (10 mM GA, 100 μM glycine or 500 μM L-serine)
Protocol: (§1) Synchronized L1 worms were incubated at 15° C. on plates or in liquid culture and exposed to different conditions as indicated. Single worms were selected randomly from the plates or aliquots were taken from the liquid cultures and added to NGM plates for immediate visualization. 25 worms per treatment were measured at 24-48 hr intervals and all growth curves were done four times.

C. elegans [4] = assay: H2O2 accumulation in worms (Amplex Red); assay type: in vivo; conditions: peroxide + GA with glutathione synthesis blocked by BSO
Protocol: Hydrogen peroxide was measured using the Amplex Red hydrogen peroxide/peroxidase assay kit (Molecular Probes, Eugene, OR), adapting the protocol to C. elegans. In the presence of hydrogen peroxide, Amplex Red is oxidized by horseradish peroxidase to form a red-fluorescent oxidation product whose fluorescence intensity can be measured.
To measure ROS production from C. elegans, 5000-7000 L1 worms were exposed to each condition for 2-3 days as indicated and then washed four times in 1 ml of the reaction buffer supplied with the kit. Volumes were adjusted to 700-1200 nematodes/50 μl and 50 μl was pipetted into a 96-well plate. A total of 50 μl of the Amplex Red reaction buffer was then added to the wells, and after 1 hr fluorescence was measured with a fluorescence microplate reader using excitation at 530±12.5 nm and fluorescence detection at 590±17.5 nm. Background fluorescence, determined for a no-H2O2 control reaction, was subtracted from each value. The significance of differences between conditions was determined by an unpaired fest. GraphPadPrism 8.0 was used for these calculations. Three biological replicates were carried out for each condition.

C. elegans [5] = assay: Quantification of glutathione (GSH/GSSG-Glo); assay type: in vivo; conditions: for GSH-to-GSSG ratio: plus supplement; for GSH/GSSG ratio: H2O2-treated worms plus 100 μM glycine or 500 μM L-serine
Protocol: Sample preparation was performed as described previously with some modifications^6. From each condition 10,000 synchronized animals were harvested and washed 3 times with sterile water. […] To thoroughly lyse the worms, 5 cycles of freezing and thawing were performed in a water bath at 37° C., followed by a 1-min sonication. The samples were then centrifuged and the supernatant tested for protein estimation and GSH quantification. Total GSH, GSSG, and GSH/GSSG ratios were quantified using the GSH/GSSG-Glo assay kit (Promega) following the instructions of the manufacturer. Briefly, each sample was tested in triplicate in 96-well culture plates with total glutathione or GSSG lysis reagent, for total glutathione or GSSG measurement, respectively. The GSH probe, luciferin-NT, was converted to luciferin, which is coupled to a firefly luciferase. The plates were then read in an […] plate reader (Perkin Elmer, United States). The GSSG value was subtracted from the total glutathione to calculate GSH levels and GSH/GSSG ratio. Four biological replicates were analyzed for each condition.

C. elegans [6] = assay: NADPH and NADP+ quantification by LC-MS; assay type: in vivo; conditions: 100 mM H2O2 plus 10 mM glycolate, 100 μM glycine or 500 μM L-serine, 3 days
Protocol: To measure NADP^+ and NADPH from C. elegans, 10000-15000 L1 worms were exposed to each condition in duplicates for 3 days and then washed four times with H2O. […] 25 µM solutions of each nucleotide were treated in parallel as standards. Homogenization for 15 min at 4° C. and 300 g was carried out in a TissueLyser II (Qiagen) after adding ⅓ volume of 0.5 mm zirconium beads. The resulting mixture was centrifuged at 13,000 g and the supernatant transferred to a new tube.
LC-MS/MS analysis of the samples was performed on a high-performance liquid chromatography (HPLC) system (1200 Agilent) coupled online to G2-S QTOF (Waters). For normal phase chromatography Bridge Amide 3.5 ml (2.1×100 mm) column from Waters was used. The mobile phase composed of eluent A and eluent B (40% acetonitrile, 0.1 mM ammonium acetate and 0.01% NH40H) was applied with the following gradient program: Eluent B, from 0% to 100% within 18 min; 100% from 18 min to 21 min; 0% from 21 min to 26 min. The flow rate was set at 0.3 ml/min. The spray voltage was set at 3.0 kV and the source temperature was set at 120° C. Nitrogen was used as both cone gas (50 L/h) and desolvation gas (800 L/h), and argon as the collision gas. MS^E mode was used with Bridge Amide 3.5 µl (2.1×100 mm) column in ESI negative ionization polarity for the detection of the nucleosides. Mass chromatograms and mass spectral data were acquired and processed by MassLynx software (Waters). Three and four biological replicates were analyzed for each condition of mel-32 RNAi and EV, respectively.

C. elegans [7] = conditions: in vivo, 3 days
Protocol: To quantify the uptake of glycolate, glycine and L-serine approximately 10000 synchronized L1 were incubated in liquid cultures as described above and grown for 3 days in the presence of […] of [1-^14C]-glycolate, [1-^14C]-glycine or L-[1-^14C]-serine. At this stage, worms were snap-frozen and stored at […]. Animals were lysed by freezing/thawing and extracted by using the Bligh and Dyer method^7. After phase separation, organic and aqueous fractions were recovered from the lower and upper phases, respectively. After drying and concentration, radioactivity was quantified using a scintillation counter and normalized for total number of worms.

C. elegans [8] = assay: Peroxide treatment of mutant, RNAi or unstressed worms: MMP, OCR and growth read together; assay type: in vivo; conditions: for Restoration of MMP, OCR or growth rate: H2O2, RNAi against mel-32 or gcst-1; for MMP, OCR, growth rate: H2O2, worms fed with empty vector RNAi bacteria; for Response to glycine and L-serine: ghpr-1 and ghpr-1, ldh-1, gox-1 mutants fed with mel-32 RNAi bacteria; for Deleterious effects of peroxide (MMP, respiration, size): ghpr-1 single and ghpr-1, gox-1, ldh-1 triple mutants, H2O2 plus glycine or L-serine
Text: C. elegans wild-type (N2) strain was received from Caenorhabditis Genetics Center, USA. Mutant strains were generated using the following primers. Idh-1: […] and […]; C31C9.2 (ghpr-1): […] and […]and F41E6.5 (gox-1): […]and[…]. […] Progeny of the rescued strains were genotyped for homozygous deletion with PCR primers for three generations. All mutants were outcrossed at least twice with the wild type to eliminate background mutations. Double and triple mutants were obtained by crossing single or double mutants and selecting the homozygous progeny by PCR.
For RNAi experiments in liquid, E. coli HT115 containing L4440 empty vector or the indicated cDNA fragment in L4440 was inoculated in 100 ml of LB containing 100 μg/ml ampicillin and incubated overnight at 37° C. in a shaking incubator at 250 rpm. To induce the production of dsRNA, a final concentration 0.8 mM IPTG was added to the collected bacterial pellet diluted 100-fold and incubated overnight at 25° C. in a shaking incubator at 250 rpm. Bacteria were then pelleted by centrifugation at 4000 rpm for 5 mins and resuspended in 200 μl S-medium containing 100 μg/ml ampicillin and 0.8 mM IPTG.
A population of synchronized L1 larvae was added to 30-ml glass tubes containing 2.5 ml of S-complete medium (liquid culture)^2 and NA22 or induced RNAi bacteria at an OD600 of 1.9. […] Worms were incubated at 15° C. and 150 rpm in a shaking incubator for 2-6 days, refreshing the medium every 2 days.
Mitochondrial staining was performed as described previously^3,4. Briefly, L1 worms were grown on plate or in liquid culture for 2-3 days at 15° C. Subsequently, they were pelleted in a 15-ml tube, rinsed twice with H2O and resuspended in 100 μl of M9. 5 μM MitoTracker Red CMXRos (Thermo Fisher Scientific, Germany) in DMSO was added to the worm suspension and incubated in this solution for 1.5 hr at room temperature in the dark. Next, the excess dye was washed off with M9 buffer and worms were incubated in 100 μl M9 for 30 min to eliminate the excess dye in the gut. Finally, worms were paralyzed with 0.5 mM Levamizol (Sigma-Aldrich), placed on slides covered with a thin layer of 2% agarose on top of which the coverslip (22×22 mm, Menzel-Glaser no. 1) was fixed using nail polish. We used a Zeiss LSM 700 inverted laser scanning confocal microscope and a Zeiss LCI Plan-Neofluar 63×/1.3 ImmCorr DIC M27 objective to image mitochondria (Zeiss, Germany). MitoTracker Red CMXRos was excited at 555 nm and the emission above 560 nm was acquired by the second PMT. Optical sections at 0.1×0.1×0.5 μm^3 x-y-z resolution were collected in a 4D hyperstack. Final images were adjusted for intensity and merged in Fiji. No non-linear adjustments were made.
as §1, with “times. Images were analyzed using FIJI (Image J) software, with length measurements derived by the sum-total of a number of segmented lines of known length, down the center of the worm as described previously^5.” for “times.”
Oxygen consumption of worms was measured with a Seahorse XFe96 system (Seahorse Bioscience, North Billerica, MA), as previously described^4. L3 larvae of the different strains were grown on plates or in liquid culture and supplemented for 2-4 days as described for each experiment. After removing bacteria and debris, approximately 100 worms were pipetted into each well of a 96-well Seahorse XF^e assay plate and OCR was measured until it stabilized. Then, 3 subsequent measurements were made at 6.5-min intervals. Finally, the exact number of worms in each well was counted and used for normalization.

[9] = 100 mM H2O2 plus supplement (10 mM GA, 100 μM glycine or 500 μM L-serine)
[10] = H2O2-treated animals defective in mel-32 or gcst-1 (RNAi)
[11] = H2O2-treated worms fed with empty vector

Structure (SMILES) | Respiration rate (OCR) (C. elegans [1]; H2O2 + GA + BSO (0.5 mM)) | Mitochondrial membrane potential (MMP) (C. elegans [2]; H2O2 + GA + BSO (0.5 mM)) | Growth rate (C. elegans [3]; H2O2 + GA + BSO (0.5 mM)) | Accumulation of H2O2 (C. elegans [4]) | Biosynthesis of glutathione (C. elegans [5]; 0.5 mM BSO, FIG. 2) | GSH/GSSG per worm (C. elegans [5]; H2O2 + GA + BSO, control 107.5) | Total glutathione (C. elegans [5]; H2O2 + GA + inhibitor BSO) | Respiration rate (OCR) (C. elegans [1]; [9]) | Ratio of NADPH to NADP+ (C. elegans [6]) | Mitochondrial membrane potential (MMP) (C. elegans [2]; [9]) | Growth (C. elegans [3]) | GSH-to-GSSG ratio (C. elegans [5]; [10]) | GSH-to-GSSG ratio (C. elegans [5]; [11]) | GSH/GSSG ratio (C. elegans [5]) | Radioactivity in labelled animals (uptake) relative to [14C]GA (C. elegans [7]) | Restoration of MMP, OCR or growth rate (C. elegans [8]) | MMP, OCR, growth rate (C. elegans [8]) | Response to glycine and L-serine (C. elegans [8]) | Deleterious effects of peroxide (MMP, respiration, size) (C. elegans [8])
CCCCS(=N)(=O)CCC(N)C(=O)O [BSO, L-buthioninesulfoximine, reference compound] | prevented the GA-mediated improvement | prevented the GA-mediated improvement | prevented the GA-mediated improvement | unchanged | inhibited | 36 | 65 % of the control |  |  |  |  |  |  |  |  |  |  |  | 
N[C@@H](CO)C(=O)O [L-serine] |  |  |  |  |  |  |  | able to restore | much weaker, but still significant, increase | able to restore | able to restore | strongly reduced | maintained close to control levels | able to restore | 3 times higher | none of these three compounds were able to restore | restored parameters | loss of response | overcome the deleterious effects of peroxide
NCC(=O)O [glycine] |  |  |  |  |  |  |  | able to restore | fully rescued | able to restore | able to restore | strongly reduced | maintained close to control levels | able to restore |  | none of these three compounds were able to restore | restored parameters | loss of response | overcome the deleterious effects of peroxide
